This is an account of results in US20180104224A1, “PHARMACEUTICAL COMPOSITIONS COMPRISING ANTIBACTERIAL AGENTS” (priority 2014, published 2018).

Where only a bound is given, the exact number is not on record here.

The test system of experiment [1] is P. aeruginosa J 154. Briefly: MIC determination in Muller Hinton Agar (CLSI). As to conditions: for MIC: Pseudomonas aeruginosa, J154, agent alone, P. aeruginosa J 154 [Reduced OprD]. The class given is cell-based, Pseudomonas aeruginosa. The method, then: (§1) The antibacterial activity of combinations according to the invention against resistant bacterial strains was investigated. Minimum Inhibitory Concentration (MIC) determination for the combinations according to invention was carried out in Muller Hinton Agar (MHA) (BD, USA) according to Clinical and Laboratory Standards Institute (CLSI) recommendations, (Clinical and Laboratory Standards Institute (CLSI), Performance Standards for Antimicrobial Susceptibility Testing, 20th Informational Supplement, M 100-S20, Volume 30, No. 1, 2010). In short, the test strains were adjusted to deliver about 10^4 CFU per spot with a multipoint inoculator (Applied Quality Services, UK). The plates were pored with MHA containing doubling concentration range of the test combinations according to invention. The plates were inoculated and were incubated at 35° C. for 18 hours.

The subject of experiment [2] is P. aeruginosa R 70. Briefly: MIC determination in Muller Hinton Agar (CLSI). The class given is cell-based, Pseudomonas aeruginosa. To be noted: for MIC: Pseudomonas aeruginosa, R70, 18 h, agent alone, P. aeruginosa R 70 [Reduced OprD + increased efflux]. The method, then: as §1
Experiment [3] has as its system Pseudomonas aeruginosa 1405. Briefly: Time kill study. To be noted: P. aeruginosa 1405; for effect on bacterial counts through out the duration of the study (in words): when used alone. It is filed as cell-based. The method, then:
(§2) The synergistic killing effect of the combinations according to invention was studied by performing time kill studies. In a typical time kill study, the freshly grown cultures were diluted to the required cell density (initial starting inoculum) in Cation adjusted Muller Hinton broth medium (BD, USA). The antibacterial agents (either alone or in combination) at the required concentrations were added into the culture-containing medium. The samples were incubated under shaking condition (120 rpm) at 37° C. Enumeration of viable bacterial count was done every 2 hour by diluting in normal saline and plating on to the Tryptic Soya Agar plates (BD, USA). The plates were incubated for 24 hours to arrive at the viable bacterial count. The results are expressed in terms of Log10 CFU per ml. In general, the decrease of 1 Log10 CFU/ml, corresponds to 90% killing of bacteria.

Experiment [4] relates to Pseudomonas aeruginosa R70. Briefly: Time kill study. The class given is cell-based. As to conditions: P. aeruginosa R70; for effect on bacterial counts through out the duration of the study (in words): when used alone. The method, then: as §2
Experiment [5] deals with highly resistant strains of Pseudomonas aeruginosa. The experiment in a line: MIC determination, all strains. To be noted: when used alone; highly resistant strains of P. aeruginosa. It is filed as cell-based. The procedure: as §1
The results on antibacterial activity of a carbapenem antibacterial agent selected from imipenem, meropenem, ertapenem and doripenem alone and in combination with Compound A or Compound B, against highly resistant strains of Pseudomonas aeruginosa are given in Table 1. […] For example, P. aeruginosa 2779 harbors resistance due to increased AmpC expression (300 times) and increased efflux; P. aeruginosa 1405 harbors resistance due to increased AmpC expression (600 times), reduced OprD expression and increased efflux; P. aeruginosa R 70 harbors resistance due to reduced OprD expression and increased efflux; and P. aeruginosa J 154 harbors resistance due to reduced OprD.

In experiment [6] the test system is P. aeruginosa 1405. The experiment in a line: MIC determination in Muller Hinton Agar (CLSI). The class given is cell-based, Pseudomonas aeruginosa. The procedure: as §1
The subject of experiment [7] is P. aeruginosa 2779. Briefly: MIC determination in Muller Hinton Agar (CLSI). The class given is cell-based, Pseudomonas aeruginosa. The method, then:
as §1

The mark [8] stands for this setting: in presence of Compound A at 4 mcg/ml.
Setting [9] is: in presence of Compound B at 4 mcg/ml.

For orientation: MIC means the smallest concentration in the dilution series that meets the test's criterion for growth inhibition. As to `O=C(NNC(=O)[C@@H]1CC[C@@H]2CN1C(=O)N2OS(=O)(=O)O)[C@@H]1CCCNC1` [Compound A, trans-sulfuric acid mono-[2-(N′-[(R)-piperidin-3-carbonyl]-hydrazinocarbonyl)-7-oxo-1,6-diaza-bicyclo[3.2.1]oct-6-yl]ester], the MIC in experiment [1] was determined as 16 µg/mL; in experiment [2] it was 8 µg/mL. The “effect on bacterial counts through out the duration of the study (in words)” value in experiment [3] and in experiment [4] was “failed to reduce the bacterial counts” throughout. Further, the “Bacterial count (Log10 CFU/ml) 0 hour” value in experiment [3] (Table 2, single agent 4 mcg/ml) is listed as 6.84 Log10 CFU/ml; in experiment [3] (Table 2, single agent 8 mcg/ml), 6.84 Log10 CFU/ml; in experiment [4] (Table 4, single agent 4 mcg/ml), 6.62 Log10 CFU/ml; in experiment [4] (Table 4, single agent 8 mcg/ml), 6.62 Log10 CFU/ml. The “Bacterial count (Log10 CFU/ml) 2 hour” value is 6.81 Log10 CFU/ml in experiment [3] (Table 2, single agent 4 mcg/ml); 6.48 Log10 CFU/ml in experiment [3] (Table 2, single agent 8 mcg/ml); 7.07 Log10 CFU/ml in experiment [4] (Table 4, single agent 4 mcg/ml); 6.9 Log10 CFU/ml in experiment [4] (Table 4, single agent 8 mcg/ml). The “Bacterial count (Log10 CFU/ml) 4 hour” value in experiment [3] (Table 2, single agent 4 mcg/ml) worked out at 7.84 Log10 CFU/ml; in experiment [3] (Table 2, single agent 8 mcg/ml) it was 7.4 Log10 CFU/ml; in experiment [4] (Table 4, single agent 4 mcg/ml), 8.35 Log10 CFU/ml; in experiment [4] (Table 4, single agent 8 mcg/ml), 7.11 Log10 CFU/ml. For the same compound, the “Bacterial count (Log10 CFU/ml) 6 hour” value in experiment [3] (Table 2, single agent 4 mcg/ml) was determined as 8.06 Log10 CFU/ml; in experiment [3] (Table 2, single agent 8 mcg/ml), 7.54 Log10 CFU/ml; in experiment [4] (Table 4, single agent 4 mcg/ml), 8.48 Log10 CFU/ml; in experiment [4] (Table 4, single agent 8 mcg/ml), 7.16 Log10 CFU/ml. The “MIC values (in words)” value in experiment [5] is listed as “higher MIC values”.

For `O=C(NNC(=O)[C@@H]1CC[C@@H]2CN1C(=O)N2OS(=O)(=O)O)[C@@H]1CCNC1` [Compound B, trans-sulfuric acid mono-[2-(N′-[(R)-pyrrolidin-3-carbonyl]-hydrazinocarbonyl)-7-oxo-1,6-diaza-bicyclo[3.2.1]oct-6-yl]ester], the minimal inhibitory concentration (MIC) came to 8 µg/mL in experiment [1] and 2 µg/mL in experiment [2]. Also, the “effect on bacterial counts through out the duration of the study (in words)” value in experiment [3] and in experiment [4] was “failed to reduce the bacterial counts” in each case. In addition, the “Bacterial count (Log10 CFU/ml) 0 hour” value in experiment [3] (Table 3, single agent 2 mcg/ml) stood at 6.81 Log10 CFU/ml; in experiment [3] (Table 3, single agent 4 mcg/ml), 6.81 Log10 CFU/ml; in experiment [4] (Table 5, single agent 2 mcg/ml), 6.44 Log10 CFU/ml; in experiment [4] (Table 5, single agent 4 mcg/ml), 6.44 Log10 CFU/ml. The “Bacterial count (Log10 CFU/ml) 2 hour” value in experiment [3] (Table 3, single agent 2 mcg/ml) was determined as 6.48 Log10 CFU/ml; in experiment [3] (Table 3, single agent 4 mcg/ml), 6.54 Log10 CFU/ml; in experiment [4] (Table 5, single agent 2 mcg/ml), 7.11 Log10 CFU/ml; in experiment [4] (Table 5, single agent 4 mcg/ml) it was 6.2 Log10 CFU/ml. Also, the “Bacterial count (Log10 CFU/ml) 4 hour” value came out at 7.6 Log10 CFU/ml in experiment [3] (Table 3, single agent 2 mcg/ml) and 6.65 Log10 CFU/ml in experiment [3] (Table 3, single agent 4 mcg/ml). For the same compound, the “Bacterial count (Log10 CFU/ml) 6 hour” value in experiment [3] (Table 3, single agent 2 mcg/ml) was 7.5 Log10 CFU/ml; in experiment [3] (Table 3, single agent 4 mcg/ml), 6.7 Log10 CFU/ml; in experiment [4] (Table 5, single agent 2 mcg/ml) it was 7.6 Log10 CFU/ml; in experiment [4] (Table 5, single agent 4 mcg/ml), 6.0 Log10 CFU/ml. For the same compound, the “Bacterial count (Log10 CFU/ml) 4 hours” value in experiment [4] (Table 5, single agent 2 mcg/ml) worked out at 7.3 Log10 CFU/ml; in experiment [4] (Table 5, single agent 4 mcg/ml), 6.4 Log10 CFU/ml. In experiment [5], the “MIC values (in words)” value was “higher MIC values”.

For `C[C@@H](O)[C@H]1C(=O)N2C(C(=O)O)=C(SCCN=CN)C[C@H]12` [Imipenem, imipenem], the “MIC (mcg/ml) of carbapenem in presence of [A] at 4 mcg/ml” value in experiment [6] (setting [8]) is 1 µg/mL; in experiment [7] (setting [8]), at most 0.25 µg/mL; in experiment [1] (in presence of Compound A at 4 mcg/ml, P. aeruginosa J 154), 4 µg/mL; in experiment [2] (in presence of Compound A at 4 mcg/ml, P. aeruginosa R 70) it was 2 µg/mL. For the same compound, the “MIC (mcg/ml) of carbapenem in presence of [B] at 4 mcg/ml” value was 1 µg/mL in experiment [6] (setting [9]); 0.12 µg/mL in experiment [7] (setting [9]); 0.5 µg/mL in experiment [1] (in presence of Compound B at 4 mcg/ml, P. aeruginosa J 154); at most 0.12 µg/mL in experiment [2] (in presence of Compound B at 4 mcg/ml, P. aeruginosa R 70). In addition, the minimal inhibitory concentration (MIC) turned out to be 16 µg/mL in experiment [1] and 8 µg/mL in experiment [2]. For the same compound, the “Bacterial count (Log10 CFU/ml) 0 hour” value in experiment [3] (Table 2, single agent 4 mcg/ml) was determined as 6.84 Log10 CFU/ml; in experiment [3] (Table 3, single agent 4 mcg/ml), 6.81 Log10 CFU/ml; in experiment [4] (Table 4, single agent 2 mcg/ml) it was 6.62 Log10 CFU/ml; in experiment [4] (Table 5, single agent 2 mcg/ml), 6.44 Log10 CFU/ml. For the same compound, the “Bacterial count (Log10 CFU/ml) 2 hour” value in experiment [3] (Table 2, single agent 4 mcg/ml) came to 6.39 Log10 CFU/ml; in experiment [3] (Table 3, single agent 4 mcg/ml) it was 6.4 Log10 CFU/ml; in experiment [4] (Table 4, single agent 2 mcg/ml), 5.7 Log10 CFU/ml; in experiment [4] (Table 5, single agent 2 mcg/ml) it was 5.6 Log10 CFU/ml. Also, the “Bacterial count (Log10 CFU/ml) 4 hour” value in experiment [3] (Table 2, single agent 4 mcg/ml) amounted to 7.04 Log10 CFU/ml; in experiment [3] (Table 3, single agent 4 mcg/ml) it was 7.78 Log10 CFU/ml; in experiment [4] (Table 4, single agent 2 mcg/ml), 5.98 Log10 CFU/ml. The “Bacterial count (Log10 CFU/ml) 6 hour” value in experiment [3] (Table 2, single agent 4 mcg/ml) is given as 8.16 Log10 CFU/ml; in experiment [3] (Table 3, single agent 4 mcg/ml), 7.93 Log10 CFU/ml; in experiment [4] (Table 4, single agent 2 mcg/ml), 6.78 Log10 CFU/ml; in experiment [4] (Table 5, single agent 2 mcg/ml), 6.3 Log10 CFU/ml. In addition, the “Bacterial count (Log10 CFU/ml) 4 hours” value in experiment [4] (Table 5, single agent 2 mcg/ml) is recorded as 5.8 Log10 CFU/ml.
